The record followed here is PubChem BioAssay AID489020 (Sanford-Burnham Center for Chemical Genomics, 2010).

pIC50: −log10 of the molar value. Calls of active or inactive are those of the source.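 The calls were made as follows: active = mean IC50, the dose halving TNF-driven NF-kB light signal, at or below a set limit; inactive = the rest.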 A value given as a limit tells only on which side of the number the result lay.

For the assay, the system named is HEK-293T NF-kB-Luc, TNFa-induced, luminescence, 14 h. The experiment in a line: TNFa-driven NF-kB luciferase inhibition, HEK-293T – cell-based, HEK-293T NF-kB-Luc, luminescence, hits from both screens, counter-screen for BCR/TCR NF-kB inhibitor project, dose response (AID 489020).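 Also: TNF-alpha stimulus at 0.1 ng/mL added with the seeded cells; selectivity counterscreen for hits from B- and T-cell receptor NF-kB screens.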 Background: The purpose of a counterscreen is to sort out artefacts and off-target activity.
With `CC(=O)O[C@H]1[C@H]2O[C@]23[C@@H]2CC[C@]4(O)C[C@@H](O)CC[C@]4(C)C2CC[C@]3(C)[C@H]1c1ccc(=O)oc1` (stereo partly specified), the pIC50 (as a rule, the IC50 on a negative log10 scale, so that one unit is a factor of ten) was more than 6.80. The same measure, in the same setting: the value for `O=C1/C(=C/c2ccccc2)C[C@@]2(O)[C@H]3Cc4ccc(O)c5c4[C@@]2(CCN3CC2CC2)C1O5` (stereo partly specified) was 5.06; that for `CC[n+]1c(C=C2C=C(C)OC(C)=C2)sc2ccccc21` was 5.72; that for `COc1ccc(C(=O)Nc2nc3ccccc3s2)c(OC)c1` was 6.66.

For the compound `COc1ccc(C(=O)CN2C(=O)c3ccccc3S2(=O)=O)cc1`, the pIC50 is 6.10.

Turning to `COc1ccc(C[C@H]2NC[C@H](O)[C@H]2OC(C)=O)cc1`, the pIC50 was more than 6.80. Turning to `CCCCCCCCCCCCn1ccc(=N)cc1`, the pIC50 is 5.62.

Turning to `COc1ccccc1C(=O)Nc1nc2ccccc2[nH]1`, the pIC50 was 6.10. On the same count and under the same terms, the value for `Cc1nn(-c2ccccc2)c(C)c1/C=N/NC(=O)c1cc(-c2cccs2)[nH]n1` was 5.45. Same read-out and setting: next, `COc1ccc(NS(=O)(=O)c2cccc(NC(=O)c3ccc(Cl)nc3)c2)cc1`: 6.51; `Cc1cc(C(=O)COC(=O)c2ccccc2O)c(C)n1CC1CCCO1` (stereo unspecified): 6.42. The same measure, in the same setting: the value for `CCN(CC)S(=O)(=O)c1ccc(Oc2ccc(S(=O)(=O)N(CC)CC)cc2)cc1` was 6.34; that for `COc1ccc(/C=C2\SC(=O)N(CCCC(=O)Nc3cc(Cl)ccc3C(=O)O)C2=O)cc1` was 5.95. On to `Cc1ccc(Cn2ccsc2=NC(=O)CCl)cc1`, for which the pIC50 is 4.81. Still for that read-out and setting: the value for `CC(C)(C)c1ccc(C(=O)Nc2ccc(CC(=O)O)cc2)o1` was 6.77. Still for that read-out and setting: next, `O=C(NCCc1ccccc1F)c1ccc2c(c1)OCCO2`: 5.85. Still for that read-out and setting: the value for `COC1=CC(=O)[C@]2(C=C1OC)OC[C@@H]1Oc3c(ccc4c3C=CC(C)(C)O4)C(=O)[C@@H]12` was 6.21; that for `CCOc1ccc(NC(=O)Nc2cccc(C(=O)O)c2)cc1` was 5.73; that for `COc1cccc(NC(=O)Nc2cccc(C(=O)O)c2)c1` was 5.26.

In the case of `C=C1C(O)[C@@H]2O[C@]3(CC[C@H](/C=C/C(C)[C@@H]4CC(C)=CC5(O[C@H](C[C@@](C)(O)C(=O)O)CCC5O)O4)O3)CC[C@H]2O[C@@H]1C(O)CC(C)[C@H]1OC2(CCCCO2)CCC1C` (stereo partly specified), the pIC50 is 6.51. On the same count and under the same terms, the value for `CC(=O)c1cn(Cc2ccccc2C#N)c2ccccc12` was 6.06; that for `CCOc1ccc(-n2c(-c3ccc(OC)cc3)c[n+]3c2CCCCC3)cc1` was 5.97.

In the case of `Cc1cc(Cl)c(S(=O)(=O)N2CCCCCC2)cc1OCC(=O)NC1CCCCC1`, the pIC50 was 6.62. The same measure, in the same setting: the value for `COc1cc2c(cc1OC)[C@@H]1C(=O)c3ccc4c(c3O[C@@H]1CO2)C[C@H](C(C)C)O4` was more than 6.80. As to `CCN1/C(=C\c2ccc3ccccc3[n+]2CC)Sc2cc(C)ccc21`, the negative logarithm of the IC50 (pIC50) was 6.20.

Take `C#CC(=O)N(c1cccc(OC)c1)C(C(=O)NC1CCCC1)c1cccs1` (stereo unspecified): the pIC50 is 5.58. On the same count and under the same terms, the value for `CC(Nc1ncnc2sccc12)c1ccccc1` (stereo unspecified) was 6.22. On to `COc1cc(/C=N/NC(=S)Nc2cccc(C(=O)O)c2)ccc1O`, for which the IC50 (commonly the concentration that gives 50% inhibition) is 23400 nM (inactive). The same measure, in the same setting: the value for `N#CC(c1cccc(Cl)c1)c1ccc2c(C(F)(F)F)cc(C(F)(F)F)nc2n1` (stereo unspecified) was > 80000 nM (inactive); that for `CC(C)Cc1cc(C(C)(C)C)ccc1OC(=S)N(C)C` was > 80000 nM (inactive). As for `Cc1ccc(OCCN2CCN(c3ncnc4sc(C)c(C)c34)CC2)cc1`, the negative logarithm of the IC50 (pIC50) is more than 6.80. For `O=S(=O)(NCC1CCCO1)c1ccc(-c2ccc(S(=O)(=O)NCC3CCCO3)cc2)cc1` (stereo unspecified), the pIC50 was 6.49.

For the compound `C[C@@H]1O[C@@H](O[C@@H]2C=C3CCC4C(CC[C@]5(C)[C@@H](c6ccc(=O)oc6)CC[C@]45O)[C@@]3(C)CC2)[C@H](O)[C@H](O)[C@H]1O` (stereo partly specified), the negative-log IC50 (pIC50) was more than 6.80. On the same count and under the same terms, the value for `CCOC(=O)C1CCCN(S(=O)(=O)c2ccc(S(=O)(=O)N(CC)CC)cc2)C1` (stereo unspecified) was 6.25. Consider `COc1ccc(CCNc2ncnc3sccc23)cc1OC`, for which the pIC50 was more than 6.80. On to `Cc1cc2sc3ccc(C#CC4(O)CCCCC4)cc3c(=O)c2cc1C`, for which the pIC50 is more than 6.80. For `CCc1ccc(-c2nc(CS(=O)CC(=O)NCc3ccco3)c(C)o2)cc1` (stereo unspecified), the IC50 was 57900 nM (inactive).

Take `c1ccc2sc(Sc3ncnc4sccc34)nc2c1`: the IC50 is 21400 nM (inactive). With `CC(=O)OC[C@]12CCC(C)=C[C@H]1O[C@@H]1[C@H](O)[C@@H](OC(C)=O)[C@@]2(C)[C@]12CO2`, the pIC50 is more than 6.80. On the same count and under the same terms, the value for `Cc1ccc2nc(NC(=O)CCCC(=O)O)sc2c1` was 5.50; that for `O=C(CN1C(=O)c2ccccc2S1(=O)=O)c1ccc2c(c1)OCCCO2` was more than 6.80.

For the compound `O=C(c1ccc(Br)cc1)c1cc([N+](=O)[O-])ccc1N1CCCCC1`, the IC50 was 24500 nM (inactive). In the case of `Cc1cc(N2CCN(c3nc4ccccc4s3)CC2)n2ncnc2n1`, the pIC50 is 5.90. Consider `COC(=O)Cc1ccc(NC(=O)c2ccc(C(C)(C)C)cc2)cc1`, for which the pIC50 was 6.36. `COc1ccc(/C=C/c2cc(-c3ccc(C)cc3)o[n+]2C)cc1`: the pIC50 is 5.17. Regarding `CN(C(=O)OC(C)(C)C)c1ccc(-c2nc3ccccc3s2)cc1`, the pIC50 was more than 6.80.

For the compound `C=C1C(=O)O[C@@H]2C[C@@H](C)[C@@H]3C=CC(=O)[C@@]3(C)[C@@H](OC(=O)CC(=O)O[C@H]3[C@@H]4C(=C)C(=O)O[C@@H]4C[C@@H](C)[C@@H]4C=CC(=O)[C@]43C)[C@H]12`, the pIC50 was 5.83. Same read-out and setting: next, `Cn1nccc1C(=O)NC1CCCc2c1cnn2-c1ccc(F)cc1F` (stereo unspecified): more than 6.80. On to `COc1cc(NC(C)CCCN)c2ncccc2c1` (stereo unspecified), for which the IC50 was 22900 nM (inactive).

Take `Cc1cc(NNC(=O)Nc2cccc(Cl)c2)nc2c1c(C)nn2C`: the pIC50 is 6.33. Still for that read-out and setting: next, `O=C(CCl)N=c1sccn1Cc1ccccc1Cl`: 5.00; `COc1ccccc1C(=O)Nc1nc(-c2ccc(S(=O)(=O)N3CCOCC3)cc2)cs1`: 5.93.

In the case of `O=C(NCCNCCO)C1(C(F)(F)F)C/C(=C\CCO)CCCO1` (stereo unspecified), the IC50 was > 80000 nM (inactive). Consider `O=C(COC(=O)c1ccc[nH]c1=O)Nc1ccc(N2CCCCC2)cc1`, for which the pIC50 was 5.92. Still for that read-out and setting: next, `CCOc1ccc(-c2cc(CCCC(=O)Nc3cccc(OC)c3)no2)cc1`: 4.85; `C[C@@H]1O[C@@H](O[C@@H]2C=C3CC[C@@H]4C(CC[C@]5(C)[C@@H](c6ccc(=O)oc6)CC[C@]45O)[C@@]3(C)CC2)[C@H](O)[C@H](O)[C@H]1O` (stereo partly specified): more than 6.80.
